Activity calls are given as the source filed them.

In data set [1] the target is T1, Aurora kinase A (Homo sapiens) (UniProt O14965).
T1 sequence (whole entry): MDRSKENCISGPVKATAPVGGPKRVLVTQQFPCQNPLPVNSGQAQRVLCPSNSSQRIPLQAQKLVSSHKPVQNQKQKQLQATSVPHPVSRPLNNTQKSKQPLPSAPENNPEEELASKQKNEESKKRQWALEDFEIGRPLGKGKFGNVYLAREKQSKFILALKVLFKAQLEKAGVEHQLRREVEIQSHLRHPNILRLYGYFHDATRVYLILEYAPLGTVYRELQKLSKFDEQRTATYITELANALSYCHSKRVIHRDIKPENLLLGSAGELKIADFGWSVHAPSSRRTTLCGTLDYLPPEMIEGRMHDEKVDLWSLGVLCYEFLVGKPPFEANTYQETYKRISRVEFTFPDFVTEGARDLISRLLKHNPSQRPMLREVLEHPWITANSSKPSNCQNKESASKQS
Put plainly: Inhibition of Aurora kinase A assessed as inhibition of substrate phosphorylation using fluorescent peptide substrate up to 100 uM by microplate reader assay.

The target of data set [2] is T2, Serine/threonine-protein kinase Chk1 (Homo sapiens, UniProt O14757).
T2 sequence (O14757 whole entry): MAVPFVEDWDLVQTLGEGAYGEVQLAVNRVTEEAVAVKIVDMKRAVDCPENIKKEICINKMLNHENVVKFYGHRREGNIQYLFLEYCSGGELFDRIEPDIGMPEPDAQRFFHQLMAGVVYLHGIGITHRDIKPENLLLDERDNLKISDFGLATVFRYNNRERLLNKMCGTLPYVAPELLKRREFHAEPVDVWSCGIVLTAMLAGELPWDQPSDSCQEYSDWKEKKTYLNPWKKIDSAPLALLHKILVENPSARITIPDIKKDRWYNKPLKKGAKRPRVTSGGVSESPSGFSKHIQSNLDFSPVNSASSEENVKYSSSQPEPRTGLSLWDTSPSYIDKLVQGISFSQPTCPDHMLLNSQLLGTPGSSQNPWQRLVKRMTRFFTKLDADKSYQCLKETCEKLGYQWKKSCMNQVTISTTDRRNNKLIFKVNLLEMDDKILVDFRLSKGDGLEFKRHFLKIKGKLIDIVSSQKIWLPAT
Description: Inhibition of CHK1 assessed as inhibition of substrate phosphorylation using fluorescent peptide substrate by microplate reader assay

The target in data set [3] is T3, Ribosomal protein S6 kinase alpha-3 (Homo sapiens, UniProt P51812).
Description: Inhibition of RSK2 assessed as inhibition of substrate phosphorylation using fluorescent peptide substrate by microplate reader assay
In data set [4] the target is Serine/threonine-protein kinase Chk2 (Homo sapiens, UniProt O96017).
Description: Inhibition of CHK2 assessed as inhibition of substrate phosphorylation using fluorescent peptide substrate by microplate reader assay
Data set [5] concerns the target T3, Ribosomal protein S6 kinase alpha-3. As to the kind of experiment: Inhibition of RSK2-mediated GSK3-beta Ser9 phosphorylation in TPA-induced human MCF7 cells at 10 nM pretreated for 30 mins by immunoblotting. Type of data set: cell-based. Background: A western blot detects proteins with antibodies after separation by electrophoresis.
The next data set deals with MCF7. As to the kind of experiment: Antiproliferative activity against human MCF7 cells assessed as reduction in cell viability after 48 hrs celltiter glo assay. Type of data set: functional, cell-based. On the technique in general: In ATP-based viability assays light output follows the ATP content of the culture.
Another data set has as its system MCF-10A. Put plainly: Antiproliferative activity against human MCF10A cells assessed as reduction in cell viability after 48 hrs celltiter glo assay. Type of data set: cell-based.
Data set [6] deals with T3, Ribosomal protein S6 kinase alpha-3. As to the kind of experiment: Inhibition of RSK2-mediated GSK3alpha Ser21 phosphorylation in TPA-induced human MCF7 cells at 10 nM pretreated for 30 mins by immunoblotting. Type of data set: cell-based.

Serine/threonine-protein kinase Chk2, sequence (O96017 whole entry): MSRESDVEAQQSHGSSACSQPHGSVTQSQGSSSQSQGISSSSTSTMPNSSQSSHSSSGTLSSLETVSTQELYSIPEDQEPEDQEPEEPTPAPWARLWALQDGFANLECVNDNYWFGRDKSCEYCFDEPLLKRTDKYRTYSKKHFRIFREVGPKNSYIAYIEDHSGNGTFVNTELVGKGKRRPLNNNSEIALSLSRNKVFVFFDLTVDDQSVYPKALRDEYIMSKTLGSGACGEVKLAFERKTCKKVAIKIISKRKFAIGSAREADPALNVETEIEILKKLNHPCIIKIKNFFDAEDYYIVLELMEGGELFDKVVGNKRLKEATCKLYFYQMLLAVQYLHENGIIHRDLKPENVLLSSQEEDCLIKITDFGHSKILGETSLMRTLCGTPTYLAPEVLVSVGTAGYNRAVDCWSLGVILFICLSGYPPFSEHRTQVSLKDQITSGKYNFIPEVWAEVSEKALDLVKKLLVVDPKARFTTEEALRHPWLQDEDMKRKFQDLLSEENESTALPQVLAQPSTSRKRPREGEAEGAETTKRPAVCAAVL
T3 sequence (P51812 whole entry): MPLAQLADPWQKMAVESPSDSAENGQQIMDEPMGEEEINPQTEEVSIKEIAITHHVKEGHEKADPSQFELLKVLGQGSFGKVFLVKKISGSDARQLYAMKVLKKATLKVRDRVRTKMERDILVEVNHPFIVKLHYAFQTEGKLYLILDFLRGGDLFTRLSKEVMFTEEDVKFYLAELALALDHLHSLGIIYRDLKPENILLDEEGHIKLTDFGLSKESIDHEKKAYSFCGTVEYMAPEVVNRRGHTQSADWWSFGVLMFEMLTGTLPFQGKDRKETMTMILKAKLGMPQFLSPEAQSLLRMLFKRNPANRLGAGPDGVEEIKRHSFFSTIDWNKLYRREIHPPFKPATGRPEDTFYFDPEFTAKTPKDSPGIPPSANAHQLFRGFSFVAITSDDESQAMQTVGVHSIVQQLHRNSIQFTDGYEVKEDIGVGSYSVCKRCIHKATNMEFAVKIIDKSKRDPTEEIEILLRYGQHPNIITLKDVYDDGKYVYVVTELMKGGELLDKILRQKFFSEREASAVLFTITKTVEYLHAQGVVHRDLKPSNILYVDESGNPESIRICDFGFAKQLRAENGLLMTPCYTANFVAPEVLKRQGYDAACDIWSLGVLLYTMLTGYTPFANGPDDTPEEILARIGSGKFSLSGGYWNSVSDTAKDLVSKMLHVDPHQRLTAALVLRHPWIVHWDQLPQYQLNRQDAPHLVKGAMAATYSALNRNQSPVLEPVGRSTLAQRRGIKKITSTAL

As usually defined, the inhibition is the relative decrease from the control value, in per cent. The IC50 is the midpoint of a concentration-inhibition curve. Higher therefore signals weaker potency. With `Cc1cn2c(/C=N\NC(=N)N)c(-c3ccc(F)cc3)nc2s1`, the inhibition entry in data set [1] is “inactive”. For the same compound, the values for the IC50 in data set [2], in data set [3] and in data set [4] were over 100 µM, over 100 µM and over 50 µM, respectively.
For `N=C(N)N/N=C/c1c(-c2cc(Cl)sc2Cl)nc2sc3ccccc3n12`, the inhibition result in data set [1] is “inactive”. The concentration for half-maximal inhibition (IC50) in data set [2] was over 100 µM; in data set [3], 12 µM; in data set [4], over 100 µM.
Turning to `N=C(N)N/N=C/c1c(-c2ccc(F)c([N+](=O)[O-])c2)nc2sc(Cl)cn12`, the inhibition entry in data set [1] was “inactive”. In addition, the IC50 was over 100 µM in data set [2], 3.93 µM in data set [3] and 41.3 µM in data set [4].
Turning to `N=C(N)N/N=C/c1c(-c2cc(Cl)sc2Cl)nc2sc(Cl)cn12`, the inhibition result in data set [1] is “inactive”. Moreover, the results for the IC50 in data set [2], in data set [3] and in data set [4] were over 100 µM, 8.26 µM and over 100 µM, respectively.
Consider `Cl.N=C(N)N/N=C\c1c(-c2ccc([N+](=O)[O-])cc2)nc2sc(F)cn12`, for which the inhibition in data set [5] and in data set [6] was 50% throughout. For the same compound, the result in the data set with MCF7 was Active. Also, in data set [1], the inhibition entry is “inactive”. In addition, the Activity result in the data set with MCF-10A was “Non-toxic”. In addition, the IC50 in data set [2] was over 100 µM; in data set [3], 2.15 µM; in data set [4], 56.5 µM.
Take `COc1cc([N+](=O)[O-])c(OC)cc1-c1nc2sc3ccccc3n2c1/C=N/NC(=N)N`: the inhibition entry in data set [1] was “inactive”. In addition, the IC50 in data set [2] is over 100 µM; in data set [3] it was 10.1 µM; in data set [4], over 100 µM.
Turning to `N=C(N)N/N=C/c1c(-c2ccc([N+](=O)[O-])cc2)nc2sc(Cl)cn12`, the inhibition in data set [5], in data set [1] and in data set [6] was 50% each time. Further, the 50% inhibitory concentration (IC50) in data set [2] is over 100 µM; in data set [3], 0.97 µM; in data set [4], 78.8 µM.
Regarding `N=C(N)N/N=C/c1c(-c2ccc(F)cc2)nc2sc(Cl)cn12`, the inhibition result in data set [1] is “inactive”. In addition, the figures for the IC50 in data set [2], in data set [3] and in data set [4] were over 100 µM, 86 µM and 90 µM, respectively.
On the same counts, the results for `COc1cc([N+](=O)[O-])c(OC)cc1-c1nc2ccccn2c1/C=N/NC(=N)N` are “inactive”, over 100 µM, 7.8 µM and over 100 µM.
In the case of `Cl.N=C(N)N/N=C/c1c(-c2ccc(Cl)c([N+](=O)[O-])c2)nc2sc(Cl)cn12`, in the data set with MCF7, the outcome was Active. In the data set with MCF-10A, the Activity result was “Non-toxic”. The values for the IC50 in data set [2], in data set [3] and in data set [4] were over 100 µM, 5.85 µM and 90 µM, respectively.
Regarding `N=C(N)N/N=C\c1c(-c2ccc(Br)c([N+](=O)[O-])c2)nc2sccn12`, the inhibition result in data set [1] is “inactive”. The IC50 was over 100 µM in data set [2], 56.7 µM in data set [3] and over 100 µM in data set [4].
For the compound `N#Cc1ccc(-c2nc3sc(Cl)cn3c2/C=N/NC(=N)N)cc1`, the inhibition result in data set [1] is “inactive”. The half-maximal inhibitory concentration (IC50) was over 100 µM in data set [2], 8.55 µM in data set [3] and 93.5 µM in data set [4].
The like results for `N=C(N)N/N=C\c1c(-c2ccc(F)c([N+](=O)[O-])c2)nc2sccn12` were, in that order, “inactive”, over 100 µM, 53.8 µM and 77.5 µM.
Consider `Cc1cn2c(/C=N/NC(=N)N)c(-c3ccc([N+](=O)[O-])cc3)nc2s1.Cl`, for which, in the data set with MCF7, the result was Active. The Activity entry in the data set with MCF-10A was “Toxic”. In addition, the IC50 is over 100 µM in data set [2], 2.8 µM in data set [3] and 83 µM in data set [4].
As for `Cl.N=C(N)N/N=C/c1c(-c2ccc(Cl)c([N+](=O)[O-])c2)nc2sccn12`, the outcome in the data set with MCF7 was Active. In the data set with MCF-10A, the Activity entry is listed as “Non-toxic”. In addition, the IC50 in data set [2] is over 100 µM; in data set [3] it was 3.13 µM; in data set [4] it was 81 µM.
For the compound `N=C(N)N/N=C\c1c(-c2ccc(F)cc2)nc2sccn12`, the inhibition result in data set [1] is “inactive”. The 50% inhibitory concentration (IC50) in data set [2], in data set [3] and in data set [4] was over 100 µM throughout.
Take `Cc1cn2c(/C=N\NC(=N)N)c(-c3ccc(F)c([N+](=O)[O-])c3)nc2s1`: the inhibition result in data set [1] is “inactive”. Also, the IC50 in data set [2] is 78.5 µM; in data set [3] it was 30.7 µM; in data set [4], 18.8 µM.

(Values after ChEMBL document CHEMBL1909514, “Imidazo[2,1-b]thiazole guanylhydrazones as RSK2 inhibitors” (Eur J Med Chem, 2011).)
